Laboratory results reported in US11707539B2, “FAP-targeted radiopharmaceuticals and imaging agents, and uses related thereto” (Trustees of Tufts College, priority 2020, dated 2023).
Where a SMILES comes first, the peptide text is derived from it.

Assays:
[1] = Solubility in water after lyophilization
[2] = Stability in aqueous solution of pH about 3; conditions: during HPLC purification and subsequent lyophilization
[3] = biological target: recombinant human dipeptidyl peptidase IV (DPPIV) (Homo sapiens (Human), UniProt P27487); assay: In vitro IC50 assay, dipeptidyl peptidase IV (Example 15); format: biochemical; conditions: Gly-Pro-AMC, room temperature
Procedure: (§1) The purpose of this assay is to determine the IC50 of various inhibitors against recombinant human dipeptidyl peptidase IV (DPPIV), fibroblast activation protein (FAP) or prolyl oligopeptidase (PREP).
(§2) The assays are conducted in the following steps: • 1 Dissolve the compound in DMSO to a final concentration of 100 mM. From this, prepare a 1 mM stock at pH 7.5 in 50 mM Tris, 140 mM NaCl Buffer (FAP)/pH 7.5 in 25 mM Tris, 250 mM NaCl Buffer/pH 8.0 140 mM NaCl Buffer (PREP). • 2. Serial dilute (1:10) the 1 mM compound stocks prepared previously into the appropriate assay buffer (FAP: 50 mM Tris, 140 mM NaCl, pH 7.5/PREP: 25 mM Tris, 0.25 M NaCl, pH 7.5/DPPIV: 25 mM Tris, pH 8.0) to one row of a 96-well plate. • 3. […] Dilute the enzymes into their appropriate assay buffers. The final enzyme concentrations should be 0.1, 1.2, and 0.6 nM for DPPIV, FAP and PREP respectively. Add 180 μL to each well needed in columns 2-10. Column 1 (A,B,C) should be prepared with 200 ul of appropriate assay buffer as control. Column 1 (D,E,F,G,H) should be prepared with 20 ul of appropriate assay buffer and 180 ul enzyme as no inhibitor control. • 5. Add 20 μL of the compound of interest from the dilution plate prepared in step 2 to columns 2-10 of the assay plate where appropriate. Each sample should be tested in triplicate. Allow this to incubate for 10 minutes at room temperature, shaking the plate for the first two minutes. • 6. Add 10 μL of 20× substrate prepared in step 3 to each well and allow this to incubate for 15 minutes at room temperature, shaking the plate for the first two minutes. • 7. Read the fluorescence at λex: 380, λem: 460. (DPcore=[dAla|dSerGly]-[boroPro|Pro-nitrile], XXaa=alpha-amino acid)

[4] = biological target: recombinant human FAP (Homo sapiens (Human), UniProt Q12884); assay: In vitro enzyme IC50 assay, FAP (Example 10); format: biochemical; conditions: 10 min preincubation at 25° C., Z-Gly-Pro-AMC
Procedure: Biological Materials: For the in vitro IC50 determination assays, recombinant human DPPIV, DPP9, FAP, and PREP were purchased from R&D Systems, and DPP8 was from Biomol International. Buffer systems used were A (25 mM Tris, pH 8.0), B (50 mM Tris, pH 7.5), C (50 mM Tris, 140 mM NaCl, pH 7.5), D (25 mM Tris, 250 mM NaCl, pH 7.5), and E (20 mM Tris, 20 mM KCl, pH 7.4). […] Substrate Specificity Assay. Peptide libraries (0.21 mM) were incubated for 24 h with 1 nM FAP in buffer E at 37° C. The reaction was quenched by the addition of 1.2 N HCl. The samples were analyzed by reverse-phase HPLC-MS on a Thermo Finnigan LCQ Duo, quantifying the peaks in the resulting base peak chromatograms. Relative cleavage values were determined by comparing the postquench abundance of intact peptides to those in the initial library.
In Vitro Enzyme IC50 Assays. Enzymatic activity of DPPIV, DPP8, DPP9, FAP, and PREP was measured at 25° C. on a Molecular Devices M2e multidetection microtiter plate reader, monitoring the fluorescence at an excitation wavelength of 380 nm and an emission wavelength of 460 nm. The substrate was either H-Gly-Pro-AMC for the DPPIV, DPP8, and DPP9 assays or Z-Gly-Pro-AMC for the FAP and PREP assays. The reaction mixture contained […], enzyme, buffer A (DPPIV and DPP9), buffer B (DPP8), buffer C (FAP), or buffer D (PREP) and a suitable amount of inhibitor (ranging between 10-4 and 10-11 M) in a total volume of 210 μL. The final enzyme concentrations were 0.1, 0.8, 0.4, 1.2, and 0.6 nM for DPPIV, DPP8, DPP9, FAP, and PREP, respectively. […] Those prepared in pH 2.0 solution were preincubated at 25° C. for 4 h prior to dilution. Immediately prior to the commencement of the experiment, the 100 mM stocks were further diluted to 10−3 M in the appropriate assay buffer, from which 1:10 serial dilutions were prepared. All inhibitors were tested in triplicate.

[5] = biological target: recombinant human fibroblast activation protein (FAP) (Homo sapiens (Human), UniProt Q12884); assay: In vitro IC50 assay, fibroblast activation protein (Example 15); format: biochemical; conditions: Z-Gly-Pro-AMC, room temperature; read-out: FAP IC50
Procedure: as §1, §2

recombinant human dipeptidyl peptidase IV (DPPIV), sequence (P27487 whole entry): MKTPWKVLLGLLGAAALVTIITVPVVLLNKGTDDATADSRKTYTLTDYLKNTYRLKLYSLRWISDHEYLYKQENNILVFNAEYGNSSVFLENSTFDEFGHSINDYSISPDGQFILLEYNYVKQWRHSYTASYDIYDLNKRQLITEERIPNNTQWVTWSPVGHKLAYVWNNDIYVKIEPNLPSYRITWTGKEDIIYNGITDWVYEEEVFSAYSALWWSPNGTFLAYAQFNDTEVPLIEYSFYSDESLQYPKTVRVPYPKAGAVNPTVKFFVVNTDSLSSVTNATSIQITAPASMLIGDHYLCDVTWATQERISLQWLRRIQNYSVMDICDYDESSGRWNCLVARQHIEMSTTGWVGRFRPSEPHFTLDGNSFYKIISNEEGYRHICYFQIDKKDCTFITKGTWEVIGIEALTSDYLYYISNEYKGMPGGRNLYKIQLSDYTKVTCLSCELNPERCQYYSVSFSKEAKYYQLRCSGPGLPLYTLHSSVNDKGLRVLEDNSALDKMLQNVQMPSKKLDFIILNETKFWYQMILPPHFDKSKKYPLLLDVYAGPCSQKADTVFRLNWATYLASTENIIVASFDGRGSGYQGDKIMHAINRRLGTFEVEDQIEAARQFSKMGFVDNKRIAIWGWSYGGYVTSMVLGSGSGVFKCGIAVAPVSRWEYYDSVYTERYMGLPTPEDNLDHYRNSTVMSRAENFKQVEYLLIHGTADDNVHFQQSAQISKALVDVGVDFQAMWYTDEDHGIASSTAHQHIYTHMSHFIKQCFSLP
recombinant human FAP, sequence (Q12884 whole entry): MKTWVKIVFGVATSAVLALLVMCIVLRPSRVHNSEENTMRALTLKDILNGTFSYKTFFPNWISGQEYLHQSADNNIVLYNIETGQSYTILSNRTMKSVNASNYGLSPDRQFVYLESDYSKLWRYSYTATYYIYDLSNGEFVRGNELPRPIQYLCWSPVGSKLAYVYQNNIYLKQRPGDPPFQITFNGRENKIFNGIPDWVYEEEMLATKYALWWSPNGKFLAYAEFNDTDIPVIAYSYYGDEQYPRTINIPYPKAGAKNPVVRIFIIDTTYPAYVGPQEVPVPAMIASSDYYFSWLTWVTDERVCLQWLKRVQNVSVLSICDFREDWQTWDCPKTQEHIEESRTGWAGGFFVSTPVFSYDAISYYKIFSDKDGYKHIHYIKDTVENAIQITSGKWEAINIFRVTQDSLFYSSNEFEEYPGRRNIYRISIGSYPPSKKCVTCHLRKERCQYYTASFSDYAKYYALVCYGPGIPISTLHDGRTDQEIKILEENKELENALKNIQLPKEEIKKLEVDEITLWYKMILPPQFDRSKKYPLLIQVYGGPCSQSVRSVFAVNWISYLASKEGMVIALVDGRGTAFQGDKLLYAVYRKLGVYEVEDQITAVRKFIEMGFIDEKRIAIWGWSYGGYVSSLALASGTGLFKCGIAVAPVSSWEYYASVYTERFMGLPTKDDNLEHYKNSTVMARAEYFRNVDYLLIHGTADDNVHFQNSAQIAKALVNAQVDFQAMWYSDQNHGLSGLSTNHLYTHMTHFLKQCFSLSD
recombinant human fibroblast activation protein (FAP), sequence (Q12884 whole entry): as above

Compound	solubility [1]	degradation in aqueous solution [2]	IC50 [3]	IC50 [4]	IC50 [5]
C[C@@H](NC(=O)[C@H]1CC[C@H](CNC(=O)CN2CCN3CCN4CCN(CC2)CC(=O)[O][Ga]([O]C(=O)C3)[O]C(=O)C4)CC1)C(=O)N1CCC[C@H]1B(O)O [Compound 6952GA, DOTA(Ga)-TXA-D-alaboroPro]	> 50 mg/mL	did not observe any sign of degradation	–	–	–
C[C@@H](NC(=O)c1ccc(CNC(=O)CN2CCN(CC(=O)O)CCN(CC(=O)O)CCN(CC(=O)O)CC2)cc1)C(=O)N1CCC[C@H]1B(O)O [Compound 6555, DOTA-aminomethyl-Bz-D-Ala-boroPro]	> 50 mg/mL	did not observe any sign of degradation	> 100000 nM	–	–
C[C@H](NC(=O)CN1CCN(CC(=O)O)CCN(CC(=O)O)CCN(CC(=O)O)CC1)C(=O)N[C@H](C)C(=O)N1CCC[C@H]1B(O)O [Compound 6511, DOTA-Ala-D-Ala-boroPro]	–	–	–	71.7 nM	–
CC(C)[C@H](NC(=O)CN1CCN(CC(=O)O)CCN(CC(=O)O)CCN(CC(=O)O)CC1)C(=O)N[C@H](C)C(=O)N1CCC[C@H]1B(O)O [Compound 6508, DOTA-Val-DAla-boroPro]	–	–	–	62 nM	–
C[C@@H](NC(=O)c1ccc(CNC(=O)CN2CCN3CCN4CCN(CC2)CC(=O)[O][Ga]([O]C(=O)C3)[O]C(=O)C4)cc1)C(=O)N1CCC[C@H]1B(O)O [Compound 6555GA]	> 50 mg/mL	did not observe any sign of degradation	> 100000 nM	–	–
C[C@@H](NC(=O)c1ccc(CNC(=O)CN2CCN3CCN4CCN(CC2)CC(=O)[O][Lu]([O]C(=O)C3)[O]C(=O)C4)cc1)C(=O)N1CCC[C@H]1B(O)O [Compound 6555LU]	> 50 mg/mL	did not observe any sign of degradation	> 100000 nM	–	–
C[C@@H](NC(=O)CNC(=O)CN1CCN(CC(=O)O)CCN(CC(=O)O)CCN(CC(=O)O)CC1)C(=O)N1CCC[C@H]1B(O)O [Compound 6512, DOTA-Gly-D-Ala-boroPro]	–	–	–	73.1 nM	–
C[C@@H](NC(=O)[C@H]1CC[C@H](CNC(=O)CN2CCN3CCN4CCN(CC2)CC(=O)[O][Lu]([O]C(=O)C3)[O]C(=O)C4)CC1)C(=O)N1CCC[C@H]1B(O)O [Compound 6952LU, DOTA(Lu)-TXA-D-alaboroPro]	> 50 mg/mL	did not observe any sign of degradation	> 100000 nM	–	–
C[C@@H](NC(=O)[C@H](CO)NC(=O)CN1CCN2CCN(CC(=O)O)CCN(CC1)CC(=O)[O][Cu][O]C(=O)C2)C(=O)N1CCC[C@H]1B(O)O [Compound 6509CU, DOTA[(Cu(II)]-Ser-D-Ala-boroPro]	–	–	–	128 nM	128 nM
C[C@@H](NC(=O)c1ccc(NNC(=O)CCCNC(=O)CN2CCN3CCN4CCN(CC2)CC(=O)[O][Gd]([O]C(=O)C3)[O]C(=O)C4)cc1)C(=O)N1CCC[C@H]1B(O)O [Compound 6489Gd, DOTA[Gd]-GABA-HyBz-D-Ala-boroPro]	–	–	–	1.1 nM	–
DOTA[Cu(II)]-EACA-HyBz-D-Ala-boroPro [Compound 6486]	–	–	–	2.8 nM	2.8 nM
CC(C)[C@H](NC(=O)CNC(=O)CNC(=O)CN1CCN2CCN(CC(=O)O)CCN(CC1)CC(=O)[O][Cu][O]C(=O)C2)C(=O)N[C@H](C)C(=O)N1CCC[C@H]1B(O)O [Compound 6522CU, DOTA[(Cu(II)]-Gly-Gly-Val-D-Ala-boroPro] (HELM PEPTIDE1{[O=C(O)CN1CCN2CCN(CC(=O)[*:2])CCN(CC1)CC(=O)[O][Cu][O]C(=O)C2].G.G.V.[dA].[OB(O)[C@@H]1CCCN1[*:1]]}$$$$V2.0)	–	–	–	8.7 nM	3.5 nM
